The record followed here is patent publication US20080039410A1, “Inositol 1,4,5-Trisphosphate Receptor Mutants and Uses Thereof” (priority 2004, published 2008).

The subject of one test is S2+ InsP3R-1. Kind of test: CCh concentration-response of Ca2+ release in Dt-40 3ko cells expressing m3R and S2+ InsP3R-1 constructs. The format is cell-based, rat. Particulars: for maximum peak Δ response to CCh: Fura-2 340/380 ratio; for fold change from WT (CCh EC50): S2 + InsP3R-1 constructs, Table 2; for EC50: fit of normalized initial peak, read-out: EC50 for CCh-induced Ca^2+ release. An excerpt:
The rat S2^+ InsP3R-1 in the expression plasmid pIRES-GFP was digested with the restriction endonuclease SalI. The overhang created by digestion was blunted by using T4 polymerase. An EcoRI linker was then ligated onto the blunted ends of the construct. The entire receptor DNA was excised from the plasmid using EcoRI and ligated into the plasmid MXT-1. The region containing the S2^− splice variant and potential PKA phosphorylation sites was excised from its backbone in pCDNA 3.1+ by RsrII and KasI and ligated into the InsP3R construct in MXT-1. The potential PKA phosphorylation sites Ser-1589 and Ser-1755 were mutated, individually in both splice variants and together in the S2^− splice variant, to alanines or glutamates by using sequential PCR mutagenesis. The outside primers used for the mutagenesis reaction flanked the restriction sites RsrII and KasI. Following mutation, the resulting fragments were cut with RsrII and KasI and inserted into the InsP3R-1 backbone at the corresponding sites. The mutations were confirmed by Big Dye fluorescent sequencing. Mutated receptor DNAs were excised from MXT-1 by using EcoRI and ligated into the mammalian expression vector pGW (provided by Dr. David Yue, Johns Hopkins University). Orientation was confirmed by using restriction enzyme digestion. Mutants were named based on the splice variant, either S2+ or S2− followed by the amino acid present at position 1589 and 1755. Thus, a mutation in S2^+ InsP3R-1 S1755E is designated, “S2+SE,” and in InsP3R-1 […] S1755A is designated “S2^−SA”. Similarly, an S2− InsP3R-1 with mutations in both S1589E and S1755E is designated “S2−EE”. The numbering of residues is based on the full-length rat InsP3R-1.
Dt-40 cells lacking all three InSP3 receptor subtypes were transfected by using electroporation at 350 V and 950 microfarads (4-mm gap cuvette). 2×10^7 cells were co-transfected with 25 μg of the InsP3R-1 cDNA, 25 μof the muscarinic type 3 (m3R) receptor DNA, and 4 μg of the red fluorescent protein plasmid pHcRed1-N1 (Clontech). Cells were incubated with DNA in 500 μl of Opti-MEM media (Invitrogen) on ice for 10 min. The cell/DNA mixture was electroporated, incubated on ice for 30 min, increased to 5 ml with Opti-MEM, and placed in a 5% CO2 incubator at 39° C. for 5 h. The cells were then centrifuged and resuspended in 12 ml of complete RPMI media (Invitrogen). Transfection efficiency was typically ˜20%. Experiments were performed within 32 h of transfection.
Transfected Dt-40 3ko cells were washed once in a HEPES-buffered physiological saline solution (HEPES-PSS) containing (in mM) 5.5 glucose, 137 NaCl, 0.56 MgCl2, 4.7 KCl, 1 Na2HPO4, 10 HEPES (pH 7.4), 1.2 CaCl2, and 1% w/v bovine serum albumin. Cells were then resuspended in bovine serum albumin HEPES-PSS with 1 μM Fura-2 (AM), placed on a 15-mm glass coverslip in a low volume perfusion chamber, and allowed to adhere for 30 min at room temperature. Cells were perfused continuously for 10 min with HEPES-PSS before experimentation to allow complete Fura-2 de-esterification. A field of cells for each experiment was chosen that contained a wide range of transfection efficiency based upon the intensity of red fluorescence emitted when excited at 560 nm. Individual cells that had emission gray levels between 1500 and 2500 were subsequently chosen to standardize expression levels. [Ca^2+]i imaging was performed essentially as described previously by using an inverted epifluorescence Nikon microscope with a 40× oil immersion objective lens (numerical aperture, 1.3) (100). Cells were excited alternately with light at 340 and 380±10 nm bandpass filters (Chroma, Rockingham, Vt.) using a monochrometer (TILL Photonics, Pleasanton, Calif.). Fluorescence images were captured and digitized with a digital camera driven by TILL Photonics software. Images were captured every 2 s with an exposure of 2 ms and 4 by 4 binning. 340/380 ratio images were calculated online and stored immediately to a hard disk. […]

The subject of another test is S2− InsP3R-1. Put plainly: Ca2+ oscillations after α-IgM antibody stimulation of Dt-40 3ko cells expressing S2− constructs. Format: cell-based, rat. The conditions noted are these: for Ca^2+ signal pattern: 250 ng/ml α-IgM antibody (threshold). From the text:
Cells transfected with WT and mutant S2− isoforms were stimulated with varying concentrations of an α-IgM antibody (Southern Biotechnology Associates, Inc., Birmingham, Ala.). Infrequent Ca^2+ oscillations were produced presumably through B cell receptor cross-linking, activation of phospholipase C-γ, and subsequent production of InsP3.
In many nonelectrically excitable cell types, the physiological mode of Ca^2+ signaling is through the generation of Ca^2+ oscillations (1, 108). Moreover, it is a generally held view that the spatial and temporal properties of Ca^2+ oscillations make an important contribution to defining the fidelity and specificity of Ca^2+ signaling. In many current models addressing the mechanism underlying Ca^2+ oscillations, a key feature is the regulation of Ca^2+ release through InsP3R. Experiments were then designed to assess the consequences of InsP3R-1 phosphorylation (expressed in isolation) on the initiation and generation of Ca^2+ oscillations. An α-IgM antibody was chosen to stimulate and to initiate Ca^2+ oscillations through activation of the endogenous B cell receptor, phospholipase C-γ activation, and the formation of InsP3. Dt-40 3ko cells expressing either S2−WT or S2−EE to mimic PKA phosphorylation of the InsP3R-1 were stimulated with various concentrations of α-IgM antibody as illustrated by the selection of representative traces in FIG. 24. […] This latter observation presumably reflects the fact that the frequency of oscillations is primarily defined by mechanisms such as Ca^2+ feedback (109) rather than the absolute sensitivity of the InsP3R-1 to InsP3 within a defined range. […] Given the almost ubiquitous expression of various forms of InsP3R-1, this is likely a generally important phenomenon. […] These include modulation of InSP3 binding, an idea supported by measurements of InsP3R binding in hepatocytes (112) (presumably S2− InsP3R-1 and InsP3R-2). In these studies the apparent affinity of InsP3 binding was enhanced ˜2-fold at resting [Ca^2+], and the [Ca^2+] necessary for half-maximal stimulation of InsP3 binding was reduced. In contrast, a study of recombinant S1−S2+InsP3R-1 expressed in SF9 cells and reconstituted into lipid bilayers has reported a similar increase in InsP3R sensitivity to InsP3 but that the bell-shaped Ca^2+ sensitivity of channel opening is not altered following phosphorylation of the InsP3R-1 (23). These findings indicate that modulation of the Ca^2+ sensitivity of channel activity is unlikely to account for the increased apparent sensitivity of the receptor, at least in this form of the InsP3R-1. There are a number of alternative mechanisms for altering InsP3R-1 sensitivity are conceivable. For example, phosphorylation of the receptor could alter the gating of the channel directly. In addition, phosphorylation might secondarily modulate the receptor by regulation of the association of regulatory factors such as proteins or adenine nucleotides (113-115).

Entries after “also recorded” stand apart in the source; their conditions may differ.

As usually defined, the EC50 is the midpoint of the concentration-response curve. “S2+ES: S2+ InsP3R-1, long splice variant with S1589E”: in the test on S2+ InsP3R-1, the “maximum peak Δ response to CCh” value is recorded as 0.59±0.2 ratio units, the “fold change from WT (CCh EC50)” value turned out to be 1.3 fold and the EC50 came out at 23.7 ± 1.2 nM.
Regarding “S2+SE: phosphomimetic S2+ InsP3R-1, long splice variant of S1755E”, in the test with S2+ InsP3R-1, the “fold more sensitive than S2+WT (CCh-induced Ca^2+ release)” value is given as approximately 9 fold, the “fold more sensitive than nonphosphorylatable S2+SA” value was approximately 32 fold, the “sensitivity of CCh-induced Ca^2+ release relative to other constructs” value is “increased sensitivity” and the “maximum peak Δ response to CCh” value stood at 0.59±0.1 ratio units. In addition, in the test with S2+ InsP3R-1, the “fold change from WT (CCh EC50)” value was 8.9 fold and the EC50 was 3.6 ± 0.2 nM.
“S2−EE: phosphomimetic S1589E/S1755E mutant of the short splice variant”: the “Ca^2+ signal pattern” value with S2− InsP3R-1 is “repetitive Ca^2+ transients following a much shorter latency; also recorded: multiple Ca^2+ transients”. In the test on S2− InsP3R-1 (500 ng/ml α-IgM antibody), the “latency before the increase in Ca^2+ versus S2−WT” value is listed as “significantly shorter” and the “magnitude of the initial transient versus WT” value is reported as “significantly larger”. In the test with S2− InsP3R-1 (1 μg/ml α-IgM antibody), the “latency, frequency or initial peak magnitude versus S2−WT” value is “indistinguishable”.
As for “S2−WT: wild-type rat type-1 InsP3 receptor, peripheral short S2− splice variant (SEQ ID NO: 17)”, the “Ca^2+ signal pattern” value in the test on S2− InsP3R-1 was “single small increase in [Ca^2+]i after a long latency; also recorded: single Ca^2+ transient after a long latency”.
